# Values quoted from earlier work, collected in publication PMC10225205 (Cancer Medicine, 2023).
# Where two headings read alike, the source gives them in different places.
# Settings: cited from earlier work
smiles,measurement,setting,value
COc1cc(OC)cc(N(CCNC(C)C)c2ccc3ncc(-c4cnn(C)c4)nc3c2)c1 [erdafitinib],Most common TEAE,in vivo,hyperphosphatemia
same,Most common TEAEs,"phase 1 multicenter study, advanced solid tumors","hyperphosphatemia, dry mouth, stomatitis, and asthenia"
C=CC(=O)N1CC[C@H](n2nc(C#Cc3cc(OC)cc(OC)c3)c3c(N)ncnc32)C1 [futibatinib],Most common TEAE,"phase 1, Japanese patients with advanced solid tumors",hyperphosphatemia
same,Most frequently reported TEAEs,"phase 1 study, advanced solid tumors","hyperphosphatemia, diarrhea, constipation, and nausea"
CCN1CCN(c2ccc(Nc3cc(N(C)C(=O)Nc4c(Cl)c(OC)cc(OC)c4Cl)ncn3)cc2)CC1 [infigratinib],Most commonly reported (>30%) TEAEs,global phase 1 study,"hyperphosphatemia, constipation, appetite decreased, stomatitis, diarrhea, nausea, and fatigue"
